Test results as given in patent US12527782B2, “Use of hexokinase 2/mitochondria-detaching compounds for treating hexokinase-2 (HK2)-expressing cancers” (Vidac Pharma Ltd., priority 2016, dated 2026).
pIC50: −log10 of the molar value.

Key:
Assay type in all cases: cell-based, human
[1] = tested on: Lung (SCLC) LXFS NCI-H727; assay: CFA, LXFS NCI-H727; details: Cell line/CFA
Description: (§1) CFA was performed by Charles River Laboratories (Freiburg, Germany) in 96-well plate format according to a modified two-layer soft agar assay. The origin of the tumor xenografts has been described (Fiebig et al. 1989, incorporated herein by reference). The list of tumors used in this study is detailed in Table 1.

Kidney RXF 423 = assay: CFA, RXF 423; details: PDX/CFA
Description: as §1

[2] = tested on: Cutanous T cell lymphoma MyLa; assay: CFA, MyLa; details: Cell line/CFA
Description: as §1

CC/C=C\CC1C(=O)CCC1CC(=O)Oc1cccc2cccnc12 (stereo not drawn) [Formula C]
pIC50 [1]: 6.08 | pIC50 (Kidney RXF 423): 5.77 | pIC50 [2]: > 6.00
